One block for each compound: values may come before it. Active and inactive are the calls of the source. The rule behind the calls is not given here.
Columns and labels:
Alpha-synuclein = Alpha-synuclein (Homo sapiens, UniProt P37840); assay: Binding affinity to recombinant human alpha-syn aggregates assessed as dissociation constant by SPR analysis
Mus musculus [1] = organism: Mus musculus; assay: Binding affinity to alpha-syn PFF in acute C57BL/6 mouse brain striatum measured after 1 hrs by immunofluorescence confocal microscopic analysis; assay type: tissue-based
Mus musculus [2] = organism: Mus musculus; assay: Binding affinity to alpha-syn PFF in chronic C57BL/6 mouse brain straitum measured for 1 hrs by immunofluorescence confocal microscopic analysis; assay type: tissue-based; settings: Striatum
[3] = Plasma concentration in Sprague-Dawley rat at 5 mg/kg, iv measured upto 120 mins by LC-MS/MS analysis; assay type: ADME, organism-based
[4] = Brain concentration in Sprague-Dawley rat at 5 mg/kg, iv measured upto 120 mins by LC-MS/MS analysis; assay type: ADME, organism-based; settings: read-out: Ct
[5] = Ratio of drug concentration in Sprague-Dawley rat brain to plasma at 5 mg/kg, iv measured upto 120 mins by LC-MS/MS analysis; assay type: ADME, organism-based; settings: read-out: BPR
[6] = Permeability of compound in BBB assay; assay type: ADME
Mus musculus [7] = organism: Mus musculus; assay: Binding affinity to alpha-syn PFF in chronic C57BL/6 mouse M2 motor cortex measured for 1 hrs by immunofluorescence confocal microscopic analysis; assay type: tissue-based

Kd (Alpha-synuclein): > 10 µM
SMILES: COc1ccc(/C=C/c2ccccc2NC(=O)NCc2cnccn2)cc1

Kd (Alpha-synuclein): > 10 µM
SMILES: O=C(Nc1ccccc1/C=C/c1ccc(F)cc1)c1cccnn1

Kd (Alpha-synuclein): > 10 µM
SMILES: COc1ccc(/C=C/c2ccccc2NC(=O)c2cccnc2)cc1

Kd (Alpha-synuclein): > 10 µM
SMILES: COc1ccc(/C=C/c2ccccc2NC(=O)c2cccs2)cc1

Kd (Alpha-synuclein): > 10 µM
SMILES: O=C(Nc1ccc(/C=C/c2ccc(F)cc2)cc1)c1ccccc1

Kd (Alpha-synuclein): > 10 µM
SMILES: COc1ccc(/C=C/c2ccccc2NC(=O)c2cccnn2)cc1

Activity (Mus musculus [1]): inactive | Activity (Mus musculus [2]): Active | concentration at 2 h [3]: 6.06 µM | concentration at 2 h [4]: 15.9 µM | Kp at 2 h [5]: 2.62 | pBBB [6]: > 0.3
SMILES: CN(C)c1ccc(/C=C/c2ccccc2NC(=O)c2ccccn2)cc1

Activity (Mus musculus [7]): Active | Activity (Mus musculus [1]): Active | Activity (Mus musculus [2]): Active | concentration at 2 h [3]: 38.5 µM | concentration at 2 h [4]: 46.8 µM | Kp at 2 h [5]: 1.21 | pBBB [6]: > 0.3
SMILES: O=C(Nc1ccccc1/C=C/c1ccc([N+](=O)[O-])cc1)c1ccccn1

Kd (Alpha-synuclein): > 10 µM
SMILES: O=C(Nc1ccccc1/C=C/c1ccc([N+](=O)[O-])cc1)c1cccnn1

Kd (Alpha-synuclein): > 10 µM
SMILES: COc1ccc(/C=C/c2ccc(NC(=O)c3ccccc3)cc2)cc1
